Measured values published in ChEMBL document CHEMBL1148648, “Novel 1,3-disubstituted 8-(1-benzyl-1H-pyrazol-4-yl) xanthines: high affinity and selective A2B adenosine receptor antagonists” (J Med Chem, 2006).

Columns and labels:
[1] = target: Adenosine receptors; A1 & A2b (Homo sapiens) (UniProt P30542+P29275); assay: Selectivity for human adenosine A2b receptor over adenosine A1 receptor; type: protein assay
[2] = target: Adenosine A2 receptor (Homo sapiens) (UniProt P29275+P29274); assay: Selectivity for human adenosine A2b receptor over adenosine A2a receptor; type: protein assay
Adenosine receptor A2b = target: T1, Adenosine receptor A2b (Homo sapiens, UniProt P29275); assay: Displacement of [3H]ZM241385 from human adenosine A2b receptor expressed in HEK cells; type: cell-based, HEK293
T1 sequence (P29275 whole entry): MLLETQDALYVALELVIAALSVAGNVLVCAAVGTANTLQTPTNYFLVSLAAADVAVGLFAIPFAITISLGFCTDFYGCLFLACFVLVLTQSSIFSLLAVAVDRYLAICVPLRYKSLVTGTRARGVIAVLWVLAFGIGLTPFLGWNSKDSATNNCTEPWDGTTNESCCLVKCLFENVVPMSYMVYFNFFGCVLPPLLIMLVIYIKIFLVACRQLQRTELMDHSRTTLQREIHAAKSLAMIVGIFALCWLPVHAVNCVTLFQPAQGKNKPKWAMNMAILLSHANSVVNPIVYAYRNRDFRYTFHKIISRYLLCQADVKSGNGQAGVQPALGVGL

Adenosine receptor A2a = Adenosine receptor A2a (Homo sapiens, UniProt P29274); assay: Displacement of [3H]ZM-241385 from human adenosine A2a receptor expressed in HEK cells; type: cell-based, HEK293
Sequence of Adenosine receptor A2a (P29274 whole entry): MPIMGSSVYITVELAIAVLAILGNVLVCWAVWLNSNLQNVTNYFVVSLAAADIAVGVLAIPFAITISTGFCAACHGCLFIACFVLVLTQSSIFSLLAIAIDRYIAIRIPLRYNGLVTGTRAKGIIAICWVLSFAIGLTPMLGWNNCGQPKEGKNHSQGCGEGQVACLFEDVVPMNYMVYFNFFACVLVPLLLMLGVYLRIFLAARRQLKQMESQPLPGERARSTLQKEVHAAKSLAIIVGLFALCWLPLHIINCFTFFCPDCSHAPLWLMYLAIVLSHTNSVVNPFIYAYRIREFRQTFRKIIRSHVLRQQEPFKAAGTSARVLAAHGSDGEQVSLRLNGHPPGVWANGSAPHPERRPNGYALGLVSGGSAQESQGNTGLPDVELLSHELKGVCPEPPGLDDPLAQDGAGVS

Adenosine receptor A1 = target: T2, Adenosine receptor A1 (Homo sapiens, UniProt P30542); assay: Displacement of [3H]CPX from human adenosine A1 receptor expressed in CHO cells
T2 sequence (P30542 whole entry): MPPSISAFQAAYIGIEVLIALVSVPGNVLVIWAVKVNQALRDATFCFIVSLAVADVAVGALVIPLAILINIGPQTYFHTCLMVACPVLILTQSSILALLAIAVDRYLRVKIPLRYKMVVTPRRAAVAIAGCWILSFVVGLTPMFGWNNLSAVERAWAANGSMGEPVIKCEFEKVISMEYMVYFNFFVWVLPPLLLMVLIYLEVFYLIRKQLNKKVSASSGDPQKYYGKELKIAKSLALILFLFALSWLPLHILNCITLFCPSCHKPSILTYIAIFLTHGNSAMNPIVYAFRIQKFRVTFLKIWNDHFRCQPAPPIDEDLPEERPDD

Row | SMILES | Ratio Ki [1] | Ratio Ki [2] | Ki (Adenosine receptor A2b) | Ki (Adenosine receptor A2a) | Ki (Adenosine receptor A1)
1 | CCCn1c(=O)c2nc(-c3cnn(Cc4ccccc4OC)c3)[nH]c2n(CCC)c1=O | 2 | 4 |  |  | 
2 | CCCn1c(=O)c2[nH]c(-c3cnn(Cc4cccc(C)c4F)c3)nc2n(CCC)c1=O |  |  | 44 nM | 460 nM | 390 nM
3 | CCCc1c(-c2nc3c([nH]2)c(=O)n(CCC)c(=O)n3CCC)cnn1-c1ccccc1 |  |  | > 6600 nM |  | 
4 | CCCn1c(=O)c2nc(-c3cnn(-c4ccccc4)c3C)[nH]c2n(CCC)c1=O |  |  | > 4100 nM |  | 
5 | CCCn1c(=O)c2[nH]c(-c3cnn(Cc4ccc(OC)cc4)c3)nc2n(CCC)c1=O |  |  | 37 nM | 61 nM | 70 nM
6 | CCCn1c(=O)c2nc(-c3cnn(Cc4ccccc4Cl)c3)[nH]c2n(CCC)c1=O | 3 |  | 20 nM | 49 nM | 59 nM
7 | CCCn1c(=O)c2[nH]c(-c3cnn(-c4ccc(Cl)cc4)c3C(F)(F)F)nc2n(CCC)c1=O |  |  | > 6600 nM |  | 
8 | CCCn1c(=O)c2nc(-c3cnn(Cc4ccc(F)cc4)c3)[nH]c2n(CCC)c1=O | 1 | 5 |  |  | 
9 | CCn1c(=O)c2[nH]c(-c3cnn(Cc4ccccc4)c3)nc2n(CC)c1=O |  |  | 19 nM | 120 nM | 580 nM
10 | CCCn1c(=O)c2[nH]c(-c3cnn(Cc4ccc(F)c(C(F)(F)F)c4)c3)nc2n(CCC)c1=O |  |  | 640 nM |  | 
11 | CCCn1c(=O)c2nc(-c3cnn(Cc4cccc(OC)c4)c3)[nH]c2n(CCC)c1=O | 1 | 2 | 34 nM | 70 nM | 34 nM
12 | Cn1c(=O)c2[nH]c(-c3cnn(Cc4cccc(F)c4)c3)nc2n(C)c1=O | 17 | 7 | 27 nM | 200 nM | 460 nM
13 | CCCCn1c(=O)c2[nH]c(-c3cnn(Cc4ccccc4)c3)nc2n(CCCC)c1=O |  |  | 980 nM | 890 nM | 1400 nM
14 | CCCn1c(=O)c2[nH]c(-c3cnn(Cc4ccccc4OC)c3)nc2n(CCC)c1=O |  |  | 37 nM | 140 nM | 59 nM
15 | CCCn1c(=O)c2nc(-c3cnn(Cc4ccc(Cl)cc4)c3)[nH]c2n(CCC)c1=O | 0.5 | 4 | 18 nM | 88 nM | 7 nM
16 | CCCn1c(=O)c2nc(-c3cnn(Cc4cccc(C)c4)c3)[nH]c2n(CCC)c1=O | 1 | 2 |  |  | 

Row | SMILES | Ratio Ki [1] | Ratio Ki [2] | Ki (Adenosine receptor A2b) | Ki (Adenosine receptor A2a) | Ki (Adenosine receptor A1)
17 | CCCn1c(=O)c2nc(-c3ccnn3-c3ccccc3)[nH]c2n(CCC)c1=O |  |  | 1100 nM |  | 
18 | CCCn1c(=O)c2nc(-c3cnn(Cc4ccc(F)cc4F)c3)[nH]c2n(CCC)c1=O |  |  | 700 nM |  | 
19 | CCCn1c(=O)c2[nH]c(-c3cnn(Cc4ccccc4C(F)(F)F)c3)nc2n(CCC)c1=O |  |  | 37 nM | 230 nM | 44 nM
20 | Cn1c(=O)c2nc(-c3cnn(Cc4ccccc4)c3)[nH]c2n(C)c1=O | 2 | 1 | 2300 nM | 3500 nM | > 6000 nM
21 | CCCn1c(=O)c2[nH]c(-c3cc(C)nn3C)nc2n(CCC)c1=O |  |  | 3700 nM |  | 
22 | CCCn1c(=O)c2c(nc(-n3cc(I)cn3)n2Cc2ccccc2)n(CCC)c1=O |  |  | > 5800 nM |  | 
23 | CCCn1c(=O)c2nc(-c3cnn(Cc4c(F)cccc4F)c3)[nH]c2n(CCC)c1=O |  |  | 390 nM |  | 
24 | CCCn1c(=O)c2nc(-n3cccn3)[nH]c2n(CCC)c1=O |  |  | > 5800 nM |  | 
25 | CCCn1c(=O)c2[nH]c(-c3cnn(Cc4ccc(F)cc4)c3)nc2n(CCC)c1=O |  |  | 22 nM | 120 nM | 23 nM
26 | CCCn1c(=O)[nH]c(=O)c2[nH]cnc21 [ENPROFYLLINE] |  |  |  |  | 42000 nM
27 | CCCn1c(=O)c2[nH]c(-c3cnn(Cc4ccc(C)cc4)c3)nc2n(CCC)c1=O |  |  | 40 nM | 80 nM | 38 nM
28 | CCCn1c(=O)c2[nH]c(-c3cnn(Cc4ccccc4C)c3)nc2n(CCC)c1=O |  |  | 33 nM | 51 nM | 22 nM
29 | CCCn1c(=O)c2[nH]c(-c3cnn(Cc4cccc(C)c4)c3)nc2n(CCC)c1=O |  |  | 36 nM | 66 nM | 48 nM
30 | CC(C)Cn1c(=O)c2nc(-c3cnn(Cc4ccccc4)c3)[nH]c2n(CC(C)C)c1=O | 0.5 | 1 |  |  | 
31 | CCCCn1c(=O)c2nc(-c3cnn(Cc4ccccc4)c3)[nH]c2n(CCCC)c1=O | 1 | 1 |  |  | 
